Data published in patent publication US20250179126A1, “A NOVEL PEPTIDE FROM A PHOTOSYNTHETIC BACERIUM DIRECTLY TARGETS MITOCHONDRIA TO TRIGGER APOPTOSIS IN ADVANCED PROSTATE CANCER CELLS” (priority 2022, published 2025).

Legend:
Type in all cases: cell-based, human
LNCaP cells = assay: Annexin-V apoptosis assay by flow cytometry, LNCaP; conditions: 48 hr, Ptxl 1 nM, p28 50 μM, aurA/aurB 0.5-50 μM
Experimental: FIG. 7A-7D: Determination of apoptotic cell death. Prostate cancer cell lines (7A: LNCaP, 7B: DU145 and 7C: PC3) and normal prostate CRL11611 cells (7D) were exposed to the indicated agents for 48 hr and stained using apoptosis assay kits according to the manufacturer's instructions. The samples were analyzed by flow cytometry. Mean±SE (N=3).
After 48 hr, annexin-V apoptosis assays (Thermo Fisher Scientific) were conducted to detect apoptotic cells. At least 10,000 cells in each case were analyzed by FACS (RRC, UIC).

[1] = system: SKOV-3 ovarian cancer cells; assay: MTT cell viability assay, SKOV-3 ovarian cancer cells; conditions: 24 hr
Description: Cell viability was detected by MTT assays, and the control (PBS-treated) cells were considered 100% viable. Mean±SE (N=3). *P<0.05, **P<0.01, ***P<0.001.
Cell lines and culture: Human cancer and noncancer (immortalized and nonimmortalized) cell lines were obtained from the American Type Culture Collection [prostate cancer (PC3, DU145 and LNCaP), normal prostate (CRL11611), breast cancer (MCF-7), ovarian cancer (SK-OV3 adenocarcinoma), lung cancer (A549)]. MDD2 breast cancer cells (p53 dominant-negative) were provided courtesy of Dr Andrei V. Gudkov, Roswell Park Cancer Institute. 20 All cell lines were cultured in MEM-E (Invitrogen) supplemented with 10% heat-inactivated fetal bovine serum (Atlanta Biological, Inc.), 100 units/mL penicillin, and 100 μg/mL streptomycin at 37° C. in 5% CO2.
Cytotoxicity assay: The MTT assay was performed as we previously described (Cha et al., Cancer Research 2020, 80: 1615-1623).

MDA-MB-231 cells = assay: Aldolase A secretion and expression in MDA-MB-231 cells treated with purified azurin; conditions: MDA-MB-231, purified azurin 100 nM, 10 μM, 1 mM, 30 min
Experimental: FIG. 18A-18G: Induction of aldolase A secretion by host cells in the presence of P. aeruginosa. 18A. […] Aldolase secretion varied between the co-cultures with cancer and normal cells. […] 18B Correlation between the aldolase A and azurin levels in co-cultures of P. aeruginosa with cancer or normal cells. […] Secretion of aldolase into the culture supernatant was assessed by western blot analysis. 18D P. aeruginosa (OD=0.3) was treated with purified aldolase A protein at concentrations of 1 nM, 10 nM, 100 nM, and 1 μM for 30 min. […] MDA-MB-231 (18E) and Mel-2 (18F) cells were treated with purified azurin protein at concentrations of 100 nM, 10 μM, and 1 mM for 30 min. […] 18G Aldolase A secretion in the presence of P. aeruginosa is distance-dependent. […]
Aldolase A gene expression in MDA-MB-231 (black bars) and Mel-2 (white bars) cells was determined by RT-PCR (22A). […] 22B: Intracellular levels of aldolase A were assessed by western blot analysis with an anti-aldolase A antibody. […]
Western blotting: After running the NuPAGE, proteins were transferred to PVDF membranes (BioRad Laboratories Inc, Hercules, CA) which were blocked in SuperBlock (T20 TBS buffer, Thermo Fisher) for one hour. […] The signal was detected using enhanced chemiluminescence (ECL, Thermo Fisher Scientific). Quantitative analysis of the bands was performed with a computer-assisted imaging densitometer (UN-SCAN-IT gel version 5.1). […]

Row | Substance | apoptotic cell death (LNCaP cells) | effect on p53-inactive cancer cells (MTT) ([1]; SKOV3 (p53-null), 0.1-100 μM) | anti-proliferative effect (MTT cell viability) ([1]; SKOV-3, 5-100 μM) | aldolase A gene expression and intracellular levels (MDA-MB-231 cells) | aldolase A secretion into culture medium (western blot) (MDA-MB-231 cells)
1 | LVN GGD DVA AAV NTA AQN NAD ALF VPPP (LVNGGDDVAAAVNTAAQNNADALFVPPP) [aurB] | induced significant dose-dependent apoptosis | dose-dependent | clear dose-dependent effects | – | –
2 | azurin: 14 kDa periplasmic copper protein of 128 amino acids from P. aeruginosa; purified recombinant | – | – | – | without increasing gene expression or intracellular levels of aldolase A | secreted a considerable amount of human aldolase A
